These are literature values, as cited in US20120115783A1, “PEPTIDOMIMETIC MACROCYCLES” (Alleron therapeutics, Inc, priority 2008, published 2012).

Molecules are shown by their SMILES.

The test system of the data set is HCT116 tumour xenografts.

Take `CN1C(=O)[C@]2(Cc3cn([C@]45C[C@@]67SS[C@@](CO)(C(=O)N6[C@H]4Nc4ccccc45)N(C)C7=O)c4ccccc34)SS[C@@]1(CO)C(=O)N2C` [chetomin]: the “growth of HCT116 tumour xenografts” value (HCT116 tumour xenografts) was “inhibited their growth”. The “hypoxia-inducible transcription within HCT116 tumour xenografts” value (within HCT116 tumour xenografts, pharmacological inhibition of HIF-1α) is given as “inhibited hypoxia-inducible transcription”.
